Patent US11998596B2 (priority 2019, dated 2024)

Tested on: PBMCs from ASF-convalescent animals
Type: cell-based, pig

Sequence: NSTLVIRI
- Responding animals (%): 4/20 (20%)
- Responding animals (responders/tested): 4/20 (20%)
